From paper PMC4945764, “Effect of flecainide derivatives on sarcoplasmic reticulum calcium release suggests a lack of direct action on the cardiac ryanodine receptor” (British Journal of Pharmacology, 2016) come the findings set out here.

The structures appear in SMILES notation.

What is called Kd is the constant that tells how readily two partners part at equilibrium. A lower Kd goes with tighter binding. A word on the kon: it is the second-order rate constant of association.

Assay [1] deals with T1, cardiac ryanodine receptor (RyR2) (Homo sapiens, UniProt Q92736).
T1 construct: recombinant eGFP-hRyR2, purified from HEK293 cells
As to the kind of experiment: single-channel recording of purified hRyR2 in planar lipid bilayers, +[…] mV, cytosolic to luminal K+ current. The format is biochemical.

For assay [2], the target named is T2, Nav1.5 channel (Homo sapiens, UniProt Q14524).
T2 construct: gene SCN5A; recombinant Nav1.5 in HEK293 (H-Flp/Nav1.5) cells
Description: INa recording, use-dependent block at […] Hz ([…] QX-FL). It counts as cell-based.

For assay [3], the target named is T1, cardiac ryanodine receptor (RyR2). As to the kind of experiment: single-channel recording of purified hRyR2 in planar lipid bilayers; association and dissociation rates of block. The format is biochemical.
Assay [4] deals with T2, Nav1.5 channel. Description: INa recording, use-dependent block at […] Hz ([…] NU-FL). It counts as cell-based.

T1 sequence (Q92736 whole entry): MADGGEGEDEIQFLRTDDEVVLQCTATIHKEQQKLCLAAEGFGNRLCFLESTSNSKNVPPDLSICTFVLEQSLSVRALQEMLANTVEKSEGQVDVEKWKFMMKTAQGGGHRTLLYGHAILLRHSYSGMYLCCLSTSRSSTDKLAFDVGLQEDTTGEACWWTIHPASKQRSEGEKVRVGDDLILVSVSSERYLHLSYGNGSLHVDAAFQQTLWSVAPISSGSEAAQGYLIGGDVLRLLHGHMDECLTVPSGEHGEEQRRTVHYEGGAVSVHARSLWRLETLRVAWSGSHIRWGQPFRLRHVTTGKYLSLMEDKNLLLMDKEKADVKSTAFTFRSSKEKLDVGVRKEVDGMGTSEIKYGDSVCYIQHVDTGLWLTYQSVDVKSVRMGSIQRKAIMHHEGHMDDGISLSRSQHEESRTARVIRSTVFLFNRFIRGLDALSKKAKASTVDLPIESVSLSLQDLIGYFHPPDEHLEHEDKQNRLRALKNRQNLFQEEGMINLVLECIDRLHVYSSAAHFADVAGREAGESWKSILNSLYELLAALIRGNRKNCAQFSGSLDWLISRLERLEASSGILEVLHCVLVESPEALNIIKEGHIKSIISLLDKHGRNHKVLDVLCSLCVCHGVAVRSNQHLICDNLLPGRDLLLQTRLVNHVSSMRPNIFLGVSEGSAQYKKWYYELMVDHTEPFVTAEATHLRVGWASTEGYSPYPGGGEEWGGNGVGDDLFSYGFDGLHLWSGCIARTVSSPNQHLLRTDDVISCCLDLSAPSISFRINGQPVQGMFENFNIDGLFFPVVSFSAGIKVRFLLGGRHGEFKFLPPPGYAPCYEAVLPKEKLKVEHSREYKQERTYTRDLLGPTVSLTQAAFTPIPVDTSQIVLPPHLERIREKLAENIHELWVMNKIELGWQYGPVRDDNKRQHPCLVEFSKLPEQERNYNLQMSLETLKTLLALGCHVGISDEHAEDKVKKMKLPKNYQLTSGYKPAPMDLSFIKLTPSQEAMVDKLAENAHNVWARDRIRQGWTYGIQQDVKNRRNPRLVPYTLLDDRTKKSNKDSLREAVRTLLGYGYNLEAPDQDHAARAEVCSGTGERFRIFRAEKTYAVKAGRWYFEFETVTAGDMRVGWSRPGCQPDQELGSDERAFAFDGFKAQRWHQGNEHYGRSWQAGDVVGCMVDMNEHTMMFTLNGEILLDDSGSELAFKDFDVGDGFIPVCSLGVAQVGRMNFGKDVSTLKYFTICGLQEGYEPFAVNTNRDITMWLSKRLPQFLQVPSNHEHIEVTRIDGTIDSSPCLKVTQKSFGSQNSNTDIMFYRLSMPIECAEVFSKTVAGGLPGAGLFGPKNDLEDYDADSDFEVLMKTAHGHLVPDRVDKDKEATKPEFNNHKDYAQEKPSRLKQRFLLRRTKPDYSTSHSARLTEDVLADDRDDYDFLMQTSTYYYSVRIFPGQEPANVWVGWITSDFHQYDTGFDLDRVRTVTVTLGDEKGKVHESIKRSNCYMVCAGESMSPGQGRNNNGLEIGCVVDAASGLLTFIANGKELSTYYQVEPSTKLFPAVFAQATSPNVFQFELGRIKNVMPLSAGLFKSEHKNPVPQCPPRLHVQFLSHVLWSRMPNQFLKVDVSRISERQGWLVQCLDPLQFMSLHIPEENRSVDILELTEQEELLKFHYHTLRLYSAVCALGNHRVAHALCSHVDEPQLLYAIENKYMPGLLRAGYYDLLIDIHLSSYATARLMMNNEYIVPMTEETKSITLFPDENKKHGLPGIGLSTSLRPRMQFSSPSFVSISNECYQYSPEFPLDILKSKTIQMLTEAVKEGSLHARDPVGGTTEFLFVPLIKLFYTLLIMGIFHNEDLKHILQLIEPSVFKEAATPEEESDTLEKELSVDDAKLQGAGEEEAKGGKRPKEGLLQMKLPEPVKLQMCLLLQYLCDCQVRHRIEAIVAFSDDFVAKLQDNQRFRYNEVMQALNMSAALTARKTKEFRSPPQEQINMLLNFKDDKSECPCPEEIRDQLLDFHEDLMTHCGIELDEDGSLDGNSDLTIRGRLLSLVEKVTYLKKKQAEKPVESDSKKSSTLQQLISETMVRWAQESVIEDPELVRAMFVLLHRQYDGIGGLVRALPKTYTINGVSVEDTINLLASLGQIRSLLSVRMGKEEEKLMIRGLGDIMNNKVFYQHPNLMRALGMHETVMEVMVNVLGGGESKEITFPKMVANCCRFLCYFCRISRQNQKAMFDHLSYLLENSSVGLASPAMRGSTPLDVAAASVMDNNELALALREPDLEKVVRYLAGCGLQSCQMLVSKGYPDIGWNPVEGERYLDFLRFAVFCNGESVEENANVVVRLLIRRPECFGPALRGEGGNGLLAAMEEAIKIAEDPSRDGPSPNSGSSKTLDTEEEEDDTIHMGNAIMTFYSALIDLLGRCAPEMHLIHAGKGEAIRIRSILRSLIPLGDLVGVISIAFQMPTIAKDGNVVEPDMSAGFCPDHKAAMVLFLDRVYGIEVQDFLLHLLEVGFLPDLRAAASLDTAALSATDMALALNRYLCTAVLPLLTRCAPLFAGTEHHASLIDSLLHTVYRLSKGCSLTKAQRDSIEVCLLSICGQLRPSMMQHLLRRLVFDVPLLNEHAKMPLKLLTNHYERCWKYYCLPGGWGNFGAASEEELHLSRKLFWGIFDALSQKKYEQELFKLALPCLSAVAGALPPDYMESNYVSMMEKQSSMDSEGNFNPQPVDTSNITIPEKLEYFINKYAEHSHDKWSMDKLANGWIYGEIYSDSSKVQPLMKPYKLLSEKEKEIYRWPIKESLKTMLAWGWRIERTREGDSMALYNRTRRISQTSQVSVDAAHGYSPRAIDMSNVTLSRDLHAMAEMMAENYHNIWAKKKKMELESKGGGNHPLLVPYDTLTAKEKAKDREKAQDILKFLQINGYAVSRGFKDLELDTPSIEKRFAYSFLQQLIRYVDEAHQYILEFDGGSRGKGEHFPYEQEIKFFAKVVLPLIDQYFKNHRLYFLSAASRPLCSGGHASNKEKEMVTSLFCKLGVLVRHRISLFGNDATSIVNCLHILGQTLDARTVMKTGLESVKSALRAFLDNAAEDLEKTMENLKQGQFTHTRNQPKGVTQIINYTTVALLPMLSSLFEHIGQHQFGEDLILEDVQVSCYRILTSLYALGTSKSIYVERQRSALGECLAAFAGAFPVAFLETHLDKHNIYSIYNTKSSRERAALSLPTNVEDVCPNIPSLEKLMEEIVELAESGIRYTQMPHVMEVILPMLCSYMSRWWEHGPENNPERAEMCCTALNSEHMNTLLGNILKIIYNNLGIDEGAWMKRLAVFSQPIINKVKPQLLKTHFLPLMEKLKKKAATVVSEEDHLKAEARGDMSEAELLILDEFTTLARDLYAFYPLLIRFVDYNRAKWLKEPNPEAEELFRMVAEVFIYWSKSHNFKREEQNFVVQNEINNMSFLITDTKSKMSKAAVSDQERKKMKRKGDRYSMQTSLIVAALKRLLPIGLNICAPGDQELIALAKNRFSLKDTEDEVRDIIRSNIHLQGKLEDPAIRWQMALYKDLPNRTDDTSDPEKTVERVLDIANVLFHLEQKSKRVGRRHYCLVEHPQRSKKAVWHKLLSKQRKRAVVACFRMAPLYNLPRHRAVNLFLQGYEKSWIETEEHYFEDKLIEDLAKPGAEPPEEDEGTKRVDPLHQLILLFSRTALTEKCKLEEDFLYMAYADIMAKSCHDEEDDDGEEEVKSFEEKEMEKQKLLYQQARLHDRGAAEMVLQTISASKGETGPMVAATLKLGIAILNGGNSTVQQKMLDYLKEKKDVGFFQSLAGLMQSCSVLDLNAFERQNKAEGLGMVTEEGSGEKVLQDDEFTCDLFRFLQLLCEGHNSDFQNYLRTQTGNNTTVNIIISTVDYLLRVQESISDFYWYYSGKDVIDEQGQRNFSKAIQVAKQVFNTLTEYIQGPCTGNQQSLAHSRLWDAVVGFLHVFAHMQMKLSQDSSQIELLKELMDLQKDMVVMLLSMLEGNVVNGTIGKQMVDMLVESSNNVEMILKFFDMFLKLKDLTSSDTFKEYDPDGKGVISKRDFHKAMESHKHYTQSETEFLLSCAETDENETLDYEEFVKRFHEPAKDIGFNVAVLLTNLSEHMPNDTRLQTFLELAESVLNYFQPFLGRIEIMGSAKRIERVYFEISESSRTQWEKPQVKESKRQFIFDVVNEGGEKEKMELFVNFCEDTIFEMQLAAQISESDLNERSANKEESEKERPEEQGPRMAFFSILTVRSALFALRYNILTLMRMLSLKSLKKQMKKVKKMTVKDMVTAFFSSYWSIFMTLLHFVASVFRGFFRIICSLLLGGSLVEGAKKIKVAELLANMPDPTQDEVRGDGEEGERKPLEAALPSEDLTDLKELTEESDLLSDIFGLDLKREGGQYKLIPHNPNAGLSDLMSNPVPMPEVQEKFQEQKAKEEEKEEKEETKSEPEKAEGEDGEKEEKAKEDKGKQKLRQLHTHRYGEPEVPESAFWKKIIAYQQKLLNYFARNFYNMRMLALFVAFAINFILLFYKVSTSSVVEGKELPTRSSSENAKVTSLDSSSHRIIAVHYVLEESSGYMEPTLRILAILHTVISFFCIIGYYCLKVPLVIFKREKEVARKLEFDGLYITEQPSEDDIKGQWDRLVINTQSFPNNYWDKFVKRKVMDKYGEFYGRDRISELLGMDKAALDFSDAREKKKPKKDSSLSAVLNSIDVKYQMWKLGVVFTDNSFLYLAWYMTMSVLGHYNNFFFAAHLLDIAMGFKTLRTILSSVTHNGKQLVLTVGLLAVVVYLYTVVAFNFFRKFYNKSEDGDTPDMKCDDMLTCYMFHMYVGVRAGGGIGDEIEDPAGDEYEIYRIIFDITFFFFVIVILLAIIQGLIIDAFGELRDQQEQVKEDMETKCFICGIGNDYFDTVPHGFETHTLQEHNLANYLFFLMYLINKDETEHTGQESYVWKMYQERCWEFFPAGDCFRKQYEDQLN

Turning to `O=C(NCC1CCCCN1)c1cc(OCC(F)(F)F)ccc1OCC(F)(F)F` (centres unmarked) [flecainide], binding in assay [1] was put at a Kd of 13.1 ± 1.89 µM.

Consider `C[N+]1(C)CCCCC1CNC(=O)c1cc(OCC(F)(F)F)ccc1OCC(F)(F)F` (centres unmarked) [QX-FL], for which, on Nav1.5 channel [2], the “INa recording, use-dependent block at 10 Hz (10 μM QX-FL)” value is “Use‐dependent block (UDB) of voltage gated Na^+ channel current (INa) by flecainide analogues, NU‐FL and QX‐FL”. In assay [3], this molecule came in with a kon of 9.1e+08 ± 3e+07 M⁻¹ s⁻¹. Turning to `O=C(NCCN1CCOCC1)c1cc(OCC(F)(F)F)ccc1OCC(F)(F)F` [NU-FL], the “INa recording, use-dependent block at 10 Hz (10 and 100 μM NU-FL)” value on Nav1.5 channel [4] was “Use‐dependent block (UDB) of voltage gated Na^+ channel current (INa) by flecainide analogues, NU‐FL and QX‐FL”. The kon in assay [3] came to 6.2e+08 ± 5e+07 M⁻¹ s⁻¹.
